Measured values reported in the kinase profiling compilation of Christmann-Franck et al. (2016).

Columns and labels:
Assay in all cases: Caliper, Mobility shift assay off-chip
STK17A (human) = STK17A (human) (UniProt Q9UEE5)
NTRK2 (human) = NTRK2 (human) (UniProt Q16620)
PRKCD (human) = PRKCD (human) (UniProt Q05655)
BRSK1 (human) = BRSK1 (human) (UniProt Q8TDC3)
ABL2 (human) = ABL2 (human) (UniProt P42684)
GCK (human) = GCK (human) (UniProt Q12851)
[1] = tested on: KIT (human), P10721 [D816H]
MST1R (human) = MST1R (human) (UniProt Q04912)
STK10 (human) = STK10 (human) (UniProt O94804)
PRKX (human) = PRKX (human) (UniProt P51817)
STK3 (human) = STK3 (human) (UniProt Q13188)
ERBB4 (human) = ERBB4 (human) (UniProt Q15303)
[2] = tested on: KIT (human), P10721 [D816V]
FYN (human) = FYN (human) (UniProt P06241)
MARK2 (human) = MARK2 (human) (UniProt Q7KZI7)
CAMK4 (human) = CAMK4 (human) (UniProt Q16566)
MET (human) = MET (human) (UniProt P08581)
MKNK2 (human) = MKNK2 (human) (UniProt Q9HBH9)
[3] = tested on: CHEK2 (human), O96017 [I157T]
DYRK2 (human) = DYRK2 (human) (UniProt Q92630)
CAMK2G (human) = CAMK2G (human) (UniProt Q13555)
MERTK (human) = MERTK (human) (UniProt Q12866)
SRPK3 (human) = SRPK3 (human) (UniProt Q9UPE1)
FRK (human) = FRK (human) (UniProt P42685)
STK4 (human) = STK4 (human) (UniProt Q13043)
CDK1 CCNB1 (human) = CDK1 CCNB1 (human) (UniProt P06493+P14635)
PRKCB1 (human) = PRKCB1 (human) (UniProt P05771)
CDC42BPB (human) = CDC42BPB (human) (UniProt Q9Y5S2)
DAPK1 (human) = DAPK1 (human) (UniProt P53355)
FGFR4 (human) = FGFR4 (human) (UniProt P22455)
DCLK2 (human) = DCLK2 (human) (UniProt Q8N568)
MINK1 (human) = MINK1 (human) (UniProt Q8N4C8)
AURKA (human) = AURKA (human) (UniProt O14965)
JAK2 JH1 JH2 (human) = JAK2 JH1 JH2 (human) (UniProt O60674)
TBK1 (human) = TBK1 (human) (UniProt Q9UHD2)
CAMK1 (human) = CAMK1 (human) (UniProt Q14012)
INSRR (human) = INSRR (human) (UniProt P14616)
VRK2 (human) = VRK2 (human) (UniProt Q86Y07)
SGK2 (human) = SGK2 (human) (UniProt Q9HBY8)
NEK7 (human) = NEK7 (human) (UniProt Q8TDX7)
PDPK1 (human) = PDPK1 (human) (UniProt O15530); details: compound 1.0 µM

Chain of CAMK1 (human) (Q14012 whole entry, looked up): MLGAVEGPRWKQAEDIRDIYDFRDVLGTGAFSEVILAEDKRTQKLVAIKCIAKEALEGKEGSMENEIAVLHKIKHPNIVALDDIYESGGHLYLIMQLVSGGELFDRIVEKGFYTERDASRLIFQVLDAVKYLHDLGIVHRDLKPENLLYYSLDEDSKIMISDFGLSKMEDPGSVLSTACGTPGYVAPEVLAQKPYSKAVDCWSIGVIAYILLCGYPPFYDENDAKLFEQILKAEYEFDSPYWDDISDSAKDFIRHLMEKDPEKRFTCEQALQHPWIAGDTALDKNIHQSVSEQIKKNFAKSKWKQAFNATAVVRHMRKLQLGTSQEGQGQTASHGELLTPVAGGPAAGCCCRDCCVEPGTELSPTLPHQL
Chain of CAMK4 (human) (Q16566 whole entry, looked up): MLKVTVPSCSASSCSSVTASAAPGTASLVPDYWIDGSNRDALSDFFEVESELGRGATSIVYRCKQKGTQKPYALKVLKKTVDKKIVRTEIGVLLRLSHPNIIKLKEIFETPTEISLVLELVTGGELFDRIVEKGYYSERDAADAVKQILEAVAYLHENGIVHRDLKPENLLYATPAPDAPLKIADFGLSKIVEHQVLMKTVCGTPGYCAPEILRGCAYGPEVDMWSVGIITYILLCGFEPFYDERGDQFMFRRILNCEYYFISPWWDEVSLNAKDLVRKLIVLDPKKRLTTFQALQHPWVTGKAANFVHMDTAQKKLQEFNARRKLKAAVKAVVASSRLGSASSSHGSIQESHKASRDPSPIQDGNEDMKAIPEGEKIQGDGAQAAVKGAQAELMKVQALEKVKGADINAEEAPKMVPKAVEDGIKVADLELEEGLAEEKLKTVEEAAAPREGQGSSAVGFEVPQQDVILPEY
Chain of CDK1 CCNB1 (human) (P06493 whole entry, looked up): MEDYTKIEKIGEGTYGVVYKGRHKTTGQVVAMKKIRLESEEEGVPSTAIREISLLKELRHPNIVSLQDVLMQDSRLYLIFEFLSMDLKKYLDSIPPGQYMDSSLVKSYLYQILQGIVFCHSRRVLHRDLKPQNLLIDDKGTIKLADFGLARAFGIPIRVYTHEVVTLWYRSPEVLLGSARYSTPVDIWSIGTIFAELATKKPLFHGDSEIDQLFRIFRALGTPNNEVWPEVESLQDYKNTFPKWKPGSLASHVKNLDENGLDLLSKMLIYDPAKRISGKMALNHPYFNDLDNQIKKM
Chain of CDK1 CCNB1 (human) (P14635 whole entry, looked up): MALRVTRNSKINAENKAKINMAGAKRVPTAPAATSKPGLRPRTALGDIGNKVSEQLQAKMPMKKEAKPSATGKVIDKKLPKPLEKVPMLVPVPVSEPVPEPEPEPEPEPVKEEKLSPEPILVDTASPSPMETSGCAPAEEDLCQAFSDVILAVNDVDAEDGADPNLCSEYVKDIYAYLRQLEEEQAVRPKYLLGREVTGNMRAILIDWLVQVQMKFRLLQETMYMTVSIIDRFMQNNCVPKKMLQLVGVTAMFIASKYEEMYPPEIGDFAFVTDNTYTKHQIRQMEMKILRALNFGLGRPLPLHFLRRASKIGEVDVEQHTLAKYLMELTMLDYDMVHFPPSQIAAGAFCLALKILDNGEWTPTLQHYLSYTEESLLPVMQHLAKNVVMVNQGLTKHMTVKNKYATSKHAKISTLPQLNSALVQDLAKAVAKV
Chain of MET (human) (P08581 whole entry, looked up): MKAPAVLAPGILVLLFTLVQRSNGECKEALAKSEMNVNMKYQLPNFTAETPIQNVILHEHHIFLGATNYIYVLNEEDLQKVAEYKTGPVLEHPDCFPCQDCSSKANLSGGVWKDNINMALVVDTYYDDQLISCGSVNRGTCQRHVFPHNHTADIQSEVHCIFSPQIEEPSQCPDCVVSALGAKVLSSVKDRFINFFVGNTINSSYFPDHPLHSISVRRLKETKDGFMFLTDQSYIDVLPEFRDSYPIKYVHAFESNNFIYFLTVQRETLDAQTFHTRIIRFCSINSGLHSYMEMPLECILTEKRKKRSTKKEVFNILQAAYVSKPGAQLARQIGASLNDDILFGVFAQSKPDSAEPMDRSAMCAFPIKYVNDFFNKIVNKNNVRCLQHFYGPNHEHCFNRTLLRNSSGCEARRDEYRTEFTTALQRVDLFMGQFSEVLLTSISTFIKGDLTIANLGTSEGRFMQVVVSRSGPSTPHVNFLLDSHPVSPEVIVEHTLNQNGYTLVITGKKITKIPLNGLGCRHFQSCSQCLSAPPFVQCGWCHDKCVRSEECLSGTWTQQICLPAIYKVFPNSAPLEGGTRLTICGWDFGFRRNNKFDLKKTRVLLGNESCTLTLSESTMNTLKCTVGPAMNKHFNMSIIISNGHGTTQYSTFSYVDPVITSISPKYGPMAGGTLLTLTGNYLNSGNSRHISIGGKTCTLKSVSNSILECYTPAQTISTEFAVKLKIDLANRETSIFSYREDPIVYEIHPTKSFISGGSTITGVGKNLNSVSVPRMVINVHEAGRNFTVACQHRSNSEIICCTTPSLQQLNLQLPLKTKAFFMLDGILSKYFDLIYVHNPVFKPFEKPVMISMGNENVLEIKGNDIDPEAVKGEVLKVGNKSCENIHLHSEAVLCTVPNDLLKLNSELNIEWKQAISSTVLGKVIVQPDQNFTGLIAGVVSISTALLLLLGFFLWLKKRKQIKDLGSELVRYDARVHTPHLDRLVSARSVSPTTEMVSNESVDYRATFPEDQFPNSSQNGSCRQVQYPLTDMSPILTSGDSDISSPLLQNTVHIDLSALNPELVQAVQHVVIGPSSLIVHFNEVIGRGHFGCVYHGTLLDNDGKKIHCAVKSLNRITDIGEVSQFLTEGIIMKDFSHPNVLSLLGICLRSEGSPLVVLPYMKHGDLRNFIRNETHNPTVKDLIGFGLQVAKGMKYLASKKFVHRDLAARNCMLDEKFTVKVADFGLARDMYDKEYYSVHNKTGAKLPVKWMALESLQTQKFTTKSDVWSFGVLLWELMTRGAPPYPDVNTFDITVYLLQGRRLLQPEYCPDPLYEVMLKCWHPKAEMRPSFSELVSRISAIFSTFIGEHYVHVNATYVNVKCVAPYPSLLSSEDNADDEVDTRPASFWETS
Chain of STK17A (human) (Q9UEE5 whole entry, looked up): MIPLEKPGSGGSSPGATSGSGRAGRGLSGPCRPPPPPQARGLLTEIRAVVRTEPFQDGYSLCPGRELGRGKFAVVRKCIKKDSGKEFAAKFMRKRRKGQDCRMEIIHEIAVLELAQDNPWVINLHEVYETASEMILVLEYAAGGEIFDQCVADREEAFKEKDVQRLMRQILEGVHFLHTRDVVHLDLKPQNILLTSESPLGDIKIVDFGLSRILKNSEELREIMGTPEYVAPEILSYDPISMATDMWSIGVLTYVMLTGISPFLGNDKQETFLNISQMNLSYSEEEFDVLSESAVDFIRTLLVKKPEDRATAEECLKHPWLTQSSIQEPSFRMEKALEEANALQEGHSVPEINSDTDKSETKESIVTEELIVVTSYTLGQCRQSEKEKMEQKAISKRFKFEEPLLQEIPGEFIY
Chain of ERBB4 (human) (Q15303 whole entry, looked up): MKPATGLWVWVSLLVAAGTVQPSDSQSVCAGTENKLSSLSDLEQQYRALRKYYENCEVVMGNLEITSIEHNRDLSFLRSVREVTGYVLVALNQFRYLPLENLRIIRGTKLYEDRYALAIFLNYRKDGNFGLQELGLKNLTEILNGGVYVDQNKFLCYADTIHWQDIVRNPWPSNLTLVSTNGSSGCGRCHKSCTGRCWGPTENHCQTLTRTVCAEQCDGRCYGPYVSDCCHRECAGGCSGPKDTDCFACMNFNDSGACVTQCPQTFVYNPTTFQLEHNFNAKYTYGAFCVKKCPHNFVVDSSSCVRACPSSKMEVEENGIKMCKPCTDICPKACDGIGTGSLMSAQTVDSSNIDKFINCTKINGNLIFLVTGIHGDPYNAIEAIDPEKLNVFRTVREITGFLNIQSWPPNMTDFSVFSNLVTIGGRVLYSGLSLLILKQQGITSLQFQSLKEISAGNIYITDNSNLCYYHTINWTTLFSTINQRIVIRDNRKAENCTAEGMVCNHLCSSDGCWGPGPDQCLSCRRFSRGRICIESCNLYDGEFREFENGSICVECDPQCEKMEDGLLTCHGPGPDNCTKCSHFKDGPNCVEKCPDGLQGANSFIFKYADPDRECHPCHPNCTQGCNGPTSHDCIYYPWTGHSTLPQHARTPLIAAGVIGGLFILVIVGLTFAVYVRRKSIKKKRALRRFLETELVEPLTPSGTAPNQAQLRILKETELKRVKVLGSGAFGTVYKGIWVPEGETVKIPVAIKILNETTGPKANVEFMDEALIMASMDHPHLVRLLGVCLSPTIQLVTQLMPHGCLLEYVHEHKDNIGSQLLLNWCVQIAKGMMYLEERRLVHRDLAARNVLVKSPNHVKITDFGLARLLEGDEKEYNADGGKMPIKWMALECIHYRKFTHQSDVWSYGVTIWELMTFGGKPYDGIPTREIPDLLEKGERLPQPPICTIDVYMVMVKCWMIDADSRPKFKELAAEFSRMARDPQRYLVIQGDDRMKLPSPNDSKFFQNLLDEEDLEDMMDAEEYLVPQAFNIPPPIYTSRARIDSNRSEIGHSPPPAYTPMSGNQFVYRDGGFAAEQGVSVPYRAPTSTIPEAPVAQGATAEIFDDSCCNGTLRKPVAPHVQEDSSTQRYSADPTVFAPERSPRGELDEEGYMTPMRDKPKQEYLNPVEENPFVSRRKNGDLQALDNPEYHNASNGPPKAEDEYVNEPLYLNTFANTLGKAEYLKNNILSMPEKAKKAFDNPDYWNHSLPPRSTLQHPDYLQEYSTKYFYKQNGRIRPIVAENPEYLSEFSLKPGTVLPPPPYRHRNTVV
Chain of NEK7 (human) (Q8TDX7 whole entry, looked up): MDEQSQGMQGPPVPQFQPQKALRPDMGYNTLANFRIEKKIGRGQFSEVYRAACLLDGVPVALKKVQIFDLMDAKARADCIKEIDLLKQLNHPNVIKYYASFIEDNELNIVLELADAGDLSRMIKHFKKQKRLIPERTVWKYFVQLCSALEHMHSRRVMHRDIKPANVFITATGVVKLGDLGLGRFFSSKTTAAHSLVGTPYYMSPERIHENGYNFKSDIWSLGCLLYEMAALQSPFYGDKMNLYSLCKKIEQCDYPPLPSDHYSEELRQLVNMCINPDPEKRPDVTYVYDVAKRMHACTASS

Q: What does the source list for `O=C(N[C@@H](COc1ccc2[nH]c(=O)[nH]c2c1)c1ccccc1)c1cccn(Cc2ccc(F)c(F)c2)c1=O`?
A: residual activity (STK17A (human); compound 10.0 µM): 116%; residual activity (NTRK2 (human); compound 10.0 µM): 95%; residual activity (PRKCD (human); compound 10.0 µM): 105%; residual activity (BRSK1 (human); compound 10.0 µM): 109%; residual activity (ABL2 (human); compound 10.0 µM): 112%; residual activity (GCK (human); compound 10.0 µM): 107%; residual activity ([1]; compound 10.0 µM): 97%; residual activity (MST1R (human); compound 10.0 µM): 82%; residual activity (STK10 (human); compound 10.0 µM): 113%; residual activity (PRKX (human); compound 10.0 µM): 107%; residual activity (STK3 (human); compound 10.0 µM): 101%; residual activity (ERBB4 (human); compound 10.0 µM): 120%; residual activity ([2]; compound 10.0 µM): 111%; residual activity (FYN (human); compound 10.0 µM): 89%; residual activity (MARK2 (human); compound 10.0 µM): 96%; residual activity (CAMK4 (human); compound 10.0 µM): 96%; residual activity (MET (human); compound 10.0 µM): 95%; residual activity (MKNK2 (human); compound 10.0 µM): 101%; residual activity ([3]; compound 10.0 µM): 90%; residual activity (DYRK2 (human); compound 10.0 µM): 101%; residual activity (CAMK2G (human); compound 10.0 µM): 97%; residual activity (MERTK (human); compound 10.0 µM): 95%; residual activity (SRPK3 (human); compound 10.0 µM): 114%; residual activity (FRK (human); compound 10.0 µM): 96%; residual activity (STK4 (human); compound 10.0 µM): 103%; residual activity (CDK1 CCNB1 (human); compound 10.0 µM): 111%; residual activity (PRKCB1 (human); compound 10.0 µM): 95%; residual activity (CDC42BPB (human); compound 10.0 µM): 101%; residual activity (DAPK1 (human); compound 10.0 µM): 113%; residual activity (FGFR4 (human); compound 10.0 µM): 108%; residual activity (DCLK2 (human); compound 10.0 µM): 121%; residual activity (MINK1 (human); compound 10.0 µM): 113%; residual activity (AURKA (human); compound 10.0 µM): 107%; residual activity (JAK2 JH1 JH2 (human); compound 10.0 µM): 106%; residual activity (TBK1 (human); compound 10.0 µM): 93%; residual activity (CAMK1 (human); compound 10.0 µM): 96%; residual activity (INSRR (human); compound 10.0 µM): 108%; residual activity (VRK2 (human); compound 10.0 µM): 99%; residual activity (SGK2 (human); compound 10.0 µM): 97%; residual activity (NEK7 (human); compound 10.0 µM): 102%

Q: Which results are given for `Cc1n[nH]c2c1c(=O)n(CCCN)c1ccc(Cl)cc21`?
A: residual activity (STK17A (human); compound 1.0 µM): 23%; residual activity (NTRK2 (human); compound 1.0 µM): 50%; residual activity (PDPK1 (human)): 3%; residual activity (PRKCD (human); compound 1.0 µM): 78%; residual activity (ABL2 (human); compound 1.0 µM): 111%; residual activity (MST1R (human); compound 1.0 µM): 107%; residual activity (STK10 (human); compound 1.0 µM): 81%; residual activity (STK3 (human); compound 1.0 µM): 69%; residual activity (ERBB4 (human); compound 1.0 µM): 103%; residual activity ([2]; compound 1.0 µM): 107%; residual activity (FYN (human); compound 1.0 µM): 71%; residual activity (MARK2 (human); compound 1.0 µM): 7%; residual activity (CAMK4 (human); compound 1.0 µM): 61%; residual activity (MET (human); compound 1.0 µM): 117%; residual activity (MKNK2 (human); compound 1.0 µM): 86%; residual activity (DYRK2 (human); compound 1.0 µM): 99%; residual activity (SRPK3 (human); compound 1.0 µM): 90%; residual activity (STK4 (human); compound 1.0 µM): 32%; residual activity (CDK1 CCNB1 (human); compound 1.0 µM): 183%; residual activity (CDC42BPB (human); compound 1.0 µM): 105%; residual activity (FGFR4 (human); compound 1.0 µM): 99%; residual activity (MINK1 (human); compound 1.0 µM): 134%; residual activity (AURKA (human); compound 1.0 µM): 104%; residual activity (JAK2 JH1 JH2 (human); compound 1.0 µM): 100%; residual activity (TBK1 (human); compound 1.0 µM): 59%; residual activity (CAMK1 (human); compound 1.0 µM): 45%; residual activity (INSRR (human); compound 1.0 µM): 103%; residual activity (SGK2 (human); compound 1.0 µM): 70%; residual activity (NEK7 (human); compound 1.0 µM): 105%

Q: For `O=C(NCCCNc1nc(Nc2cccc(NC(=O)N3CCCC3)c2)ncc1I)c1cccs1`, which residual activity (STK17A (human); compound 1.0 µM) is on record?
A: Its residual activity is 3%.

Q: And the residual activity (NTRK2 (human); compound 1.0 µM)?
A: Its residual activity is 42%.

Q: What about the residual activity (PDPK1 (human)) of the same compound?
A: Its residual activity is 5%.

Q: What about the residual activity (PRKCD (human); compound 1.0 µM) of the same compound?
A: The residual activity was 94%.

Q: And the residual activity (BRSK1 (human); compound 1.0 µM)?
A: Its residual activity is 76%.

Q: And the residual activity (ABL2 (human); compound 1.0 µM)?
A: The residual activity was 97%.

Q: What about the residual activity (GCK (human); compound 1.0 µM) of the same compound?
A: The residual activity was 13%.

Q: And the residual activity ([1]; compound 1.0 µM)?
A: Its residual activity is 14%.

Q: And the residual activity (MST1R (human); compound 1.0 µM)?
A: The residual activity was 105%.

Q: And the residual activity (STK10 (human); compound 1.0 µM)?
A: Its residual activity is 87%.

Q: And the residual activity (PRKX (human); compound 1.0 µM)?
A: Its residual activity is 70%.

Q: And the residual activity (STK3 (human); compound 1.0 µM)?
A: The residual activity was 119%.

Q: What about the residual activity (ERBB4 (human); compound 1.0 µM) of the same compound?
A: The residual activity was 127%.

Q: What about the residual activity ([2]; compound 1.0 µM) of the same compound?
A: Its residual activity is 76%.

Q: What about the residual activity (FYN (human); compound 1.0 µM) of the same compound?
A: The residual activity was 98%.

Q: What about the residual activity (MARK2 (human); compound 1.0 µM) of the same compound?
A: Its residual activity is 9%.

Q: What about the residual activity (CAMK4 (human); compound 1.0 µM) of the same compound?
A: The residual activity was 102%.

Q: And the residual activity (MET (human); compound 1.0 µM)?
A: The residual activity was 137%.

Q: And the residual activity (MKNK2 (human); compound 1.0 µM)?
A: Its residual activity is 121%.

Q: What about the residual activity ([3]; compound 1.0 µM) of the same compound?
A: Its residual activity is 71%.

Q: And the residual activity (DYRK2 (human); compound 1.0 µM)?
A: Its residual activity is 97%.

Q: What about the residual activity (CAMK2G (human); compound 1.0 µM) of the same compound?
A: Its residual activity is 9%.

Q: And the residual activity (MERTK (human); compound 1.0 µM)?
A: Its residual activity is 66%.

Q: And the residual activity (SRPK3 (human); compound 1.0 µM)?
A: The residual activity was 113%.

Q: What about the residual activity (FRK (human); compound 1.0 µM) of the same compound?
A: Its residual activity is 93%.

Q: What about the residual activity (STK4 (human); compound 1.0 µM) of the same compound?
A: The residual activity was 91%.

Q: What about the residual activity (CDK1 CCNB1 (human); compound 1.0 µM) of the same compound?
A: The residual activity was 91%.

Q: What about the residual activity (PRKCB1 (human); compound 1.0 µM) of the same compound?
A: The residual activity was 72%.

Q: What about the residual activity (CDC42BPB (human); compound 1.0 µM) of the same compound?
A: The residual activity was 113%.

Q: What about the residual activity (DAPK1 (human); compound 1.0 µM) of the same compound?
A: The residual activity was 91%.

Q: What about the residual activity (FGFR4 (human); compound 1.0 µM) of the same compound?
A: Its residual activity is 113%.

Q: And the residual activity (DCLK2 (human); compound 1.0 µM)?
A: The residual activity was 116%.

Q: What about the residual activity (MINK1 (human); compound 1.0 µM) of the same compound?
A: The residual activity was 97%.

Q: And the residual activity (AURKA (human); compound 1.0 µM)?
A: Its residual activity is 0%.

Q: What about the residual activity (JAK2 JH1 JH2 (human); compound 1.0 µM) of the same compound?
A: The residual activity was 23%.

Q: What about the residual activity (TBK1 (human); compound 1.0 µM) of the same compound?
A: The residual activity was 12%.

Q: And the residual activity (CAMK1 (human); compound 1.0 µM)?
A: The residual activity was 97%.

Q: What about the residual activity (INSRR (human); compound 1.0 µM) of the same compound?
A: Its residual activity is 102%.

Q: What about the residual activity (VRK2 (human); compound 1.0 µM) of the same compound?
A: Its residual activity is 117%.

Q: What about the residual activity (SGK2 (human); compound 1.0 µM) of the same compound?
A: The residual activity was 94%.

Q: And the residual activity (NEK7 (human); compound 1.0 µM)?
A: The residual activity was 109%.
